What was measured:
[1] = tested on: pancreatic exocrine function; assay: 13C-dipeptide breath test in chronic pancreatitis rats (oleic acid injected into pancreatic duct); format: in vivo, rat; conditions: oral 35 μmol/kg, mean±SD
Method: (§1) Overnight-fasted rats (male, Wistar, 8-week old) in the awake state were individually fixed in a rat holder of a microwave irradiation apparatus. The breath was collected at a rate of about 100 to 300 ml/min using a stroke pump (Variable Stroke Pump VS-500; Shibata Kagaku Kogyo), and the CO2 concentration therein was maintained at about 3%. A Perma Pure drier (MD-050-12P; Perma Pure INC.) was set between the rat holder and the stroke pump to remove water vapor from the breath. When the CO2 concentration was stabilized, the rat was temporarily released from the rat holder. A ^13C-labeled dipeptide or a sodium salt thereof each dissolved in distilled water was administered to the stomach of the rat using an oral probe [dose: 35 μmol/kg (5 ml/kg)]. The breath was sampled with a syringe every 5 min until up to 20 min. A 15 ml sample was transferred from the syringe into a vacuum vial (10 ml), sealed and subjected to automated analysis by GC-MS (Breath MAT) [FinniganMAT]. Δ^13C(‰) was calculated from δ^13C values which are ^13C values of a sample (i.e. differences from the standard substance PDB) using the following formula. Δ^13C(‰)=(δ^13C)tmin−((δ^13C)0 min <Breath MAT Measuring Conditions>
Chronic pancreatitis rats were created according to the method of Mundlos et al., Pancreas 1:29 (1986). Oleic acid was injected into the pancreatic duct of 5-week old Wistar male rats. After breeding for 3 weeks, they were used in ^13C-dipeptide breath tests.
(§2) As in Example 12, Bz-Phe-(^13C-Ala)-ONa [dose: 12.6 mg/kg (35 μmol/kg)], Bz-Gln-(^13C-Ala)-ONa [dose: 12.0 mg/kg (35 μmol/kg)], Bz-Val-(^13C-Ala)-ONa [dose: 11.0 mg/kg (35 μmol/kg)], Bz-Tyr-(^13C-Ala)-ONa [dose: 13.2 mg/kg (35 μmol/kg)], Bz-Met-(^13C-Ala)-ONa [dose: 12.1 mg/kg (35 μmol/kg)], Bz-Ser-(^13C-Ala)-ONa [dose: 10.6 mg/kg (35 μmol/kg)], Bz-Thr-(^13C-Ala)-ONa [dose: 11.0 mg/kg (35 μmol/kg)] or Boc-Phe-(^13C-Ala)-ONa [dose: 8.84 mg/kg (24.6 μmol/kg)] was administered orally to normal rats and chronic pancreatitis rats. Then, the time course of the degree of increase of the ^13C concentration in exhaled CO2 (Δ^13C(‰)) was measured.

[2] = tested on: pancreatic exocrine function; assay: 13C-dipeptide breath test in normal rats (Δ13C in exhaled CO2 after oral administration); format: in vivo, rat; conditions: for Δ^13C(‰) peak value / Peak time: oral 35 μmol/kg (5 ml/kg); for Δ^13C(‰) peak value: exhaled CO2; for Δ^13C(‰) value at 5 min after the administration / Δ^13C(‰) value at 10 min after the administration / Δ^13C(‰) value at 15 min after the administration / Δ^13C(‰) value at 20 min after the administration: normal rats, mean±SD; for Δ^13C(‰) value at 5 min after the administration / Δ^13C(‰) value at 10 min after the administration / Δ^13C(‰) value at 15 min after the administration / Δ^13C(‰) peak value compared with the peak value of Bz-Ala-(^13C-Ala)-ONa / Δ^13C(‰) value at 20 min after the administration: oral 35 μmol/kg; for Δ^13C(‰) peak value compared with the peak value of Bz-Ala-(^13C-Ala)-ONa: comparison in words
Method: as §1
Apparatus: Breath MAT plus (Finningan)
Using Ac-Met-(^13C-Ala)-ONa, Z-Met-(^13C-Ala)-ONa, Boc-Met-(^13C-Ala)-ONa or Boc-Phe-(^13C-Ala)-ONa [dose: 35 μmol/kg (5 ml/kg)], ^13C-breath tests were carried out in the same manner as in Example 12. The resultant Δ^13C(‰) peak values were compared with the Δ^13C(‰) peak value in the Bz-Ala-(^13C-Ala)-ONa breath test.
as §2

[3] = Table 1, overnight-fasted Wistar rats
[4] = Table 1, overnight-fasted Wistar rats, peak in time course of Δ13C(‰) up to 20 min

Δ^13C(‰) value at 5 min after the administration [1] | Δ^13C(‰) value at 10 min after the administration [1] | Δ^13C(‰) value at 15 min after the administration [1] | Δ^13C(‰) peak value [2, 3] | Peak time [2, 4] | Δ^13C(‰) value at 5 min after the administration [2] | Δ^13C(‰) value at 10 min after the administration [2] | Δ^13C(‰) value at 15 min after the administration [2] | Δ^13C(‰) peak value compared with the peak value of Bz-Ala-(^13C-Ala)-ONa ([2]; rats) | Δ^13C(‰) value at 20 min after the administration [1] | Δ^13C(‰) value at 20 min after the administration [2] | Peak time ([2]; Table 2, rats) | Δ^13C(‰) peak value ([2]; Table 2, rats) | SMILES
3.41±3.44 ‰ | 15.32±13.04 ‰ | 28.06±19.01 ‰ | 54.56 ‰ | 10 min | 13.86±4.98 ‰ | 54.56±14.10 ‰ | 51.27±3.21 ‰ | higher |  |  |  |  | C[C@H](NC(=O)[C@H](CCC(N)=O)NC(=O)c1ccccc1)[13C](=O)[O-].[Na+] [Na salt of Bz-Gln-(^13C-Ala), N-benzoyl-L-glutaminyl-^13C-L-alanine]
 |  |  | 32.14 ‰ | 20 min |  |  |  |  |  |  |  |  | C[C@H](NC(=O)CNC(=O)c1ccccc1)[13C](=O)[O-].[Na+] [Na salt of Bz-Gly-(^13C-Ala), reference compound]
 |  |  | 36.17 ‰ | 20 min |  |  |  |  |  |  |  |  | C[C@H](NC(=O)[C@H](Cc1cnc[nH]1)NC(=O)c1ccccc1)[13C](=O)[O-].[Na+] [Na salt of Bz-His-(^13C-Ala), reference compound]
 |  |  | 39.82 ‰ | 20 min |  |  |  |  |  |  |  |  | CC[C@H](C)[C@H](NC(=O)c1ccccc1)C(=O)N[C@@H](C)[13C](=O)[O-].[Na+] [Na salt of Bz-Ile-(^13C-Ala), reference compound]
 |  |  | 42.77 ‰ | 15 min |  |  |  |  |  |  |  |  | CC(C)C[C@H](NC(=O)c1ccccc1)C(=O)N[C@@H](C)[13C](=O)[O-].[Na+] [Na salt of Bz-Leu-(^13C-Ala), reference compound]
1.52±1.47 ‰ | 7.69±5.15 ‰ | 14.59±8.50 ‰ | 48.88 ‰ | 10 min | 19.76±10.16 ‰ | 48.88±17.45 ‰ | 45.53±8.00 ‰ | higher | 20.25±9.43 ‰ | 38.58±3.79 ‰ |  |  | CSCC[C@H](NC(=O)c1ccccc1)C(=O)N[C@@H](C)[13C](=O)[O-].[Na+] [Na salt of Bz-Met-(^13C-Ala), N-benzoyl-L-methionyl-^13C-L-alanine]
4.17±3.95 ‰ | 14.56±10.79 ‰ | 22.80±12.36 ‰ | 55.62 ‰ | 10 min | 29.32±13.57 ‰ | 55.62±6.62 ‰ | 45.44±3.44 ‰ | higher |  |  |  |  | C[C@H](NC(=O)[C@H](Cc1ccccc1)NC(=O)c1ccccc1)[13C](=O)[O-].[Na+] [Na salt of Bz-Phe-(^13C-Ala), N-benzoyl-L-phenylalanyl-^13C-L-alanine]
1.07±1.43 ‰ | 5.94±8.13 ‰ | 10.34±11.99 ‰ | 47.48 ‰ | 15 min | 8.29±4.94 ‰ | 35.91±11.85 ‰ | 47.48±12.89 ‰ | higher | 12.80±11.97 ‰ | 43.04±5.30 ‰ |  |  | C[C@H](NC(=O)[C@H](CO)NC(=O)c1ccccc1)[13C](=O)[O-].[Na+] [Na salt of Bz-Ser-(^13C-Ala), N-benzoyl-L-seryl-^13C-L-alanine]
 |  |  | 39.76 ‰ | 15 min |  |  |  |  |  |  |  |  | C[C@H](NC(=O)[C@H](Cc1c[nH]c2ccccc12)NC(=O)c1ccccc1)[13C](=O)[O-].[Na+] [Na salt of Bz-Trp-(^13C-Ala), reference compound]
 |  |  |  |  |  |  |  | higher |  |  | 15 min | 48.71 ‰ | CSCC[C@H](NC(=O)OCc1ccccc1)C(=O)N[C@@H](C)[13C](=O)[O-].[Na+] [Na salt of Z-Met-(^13C-Ala), benzyloxycarbonyl-L-methionyl-^13C-L-alanine]

Reference: patent US7662857B2, “Diagnostic agents for pancreatic exocrine function” (Tokyo Gas Company Limited, priority 2001, dated 2010)
